According to paper PMC12186753 (ACS pharmacology & translational science, 2025):
Values joined by “and” are separate entries in the source; they are usually repeats but may differ in a detail not shown here. Equal values may be shown once. Read-outs that look alike come from different tables or passages of the source.

Columns and labels:
plasmin [1] = target: T1, plasmin (Homo sapiens, UniProt P00747); assay: Plasmin inhibition assay with chromogenic substrate S-2251 (Dixon plot, Cornish-Bowden plot); assay type: biochemical; conditions: for Mode of inhibition (Cornish-Bowden S/Vo vs I plot) / rpAMB (KiAMB/Kihetero) / rpTXA (KiTXA/Kihetero): plasmin; for Ki: read-out: Plasmin Ki, S-2251, 42.5 nM human plasmin, PBS pH 7.4, Dixon plot
human tPA = human tPA (Homo sapiens, UniProt P00750); assay: tPA inhibition assay with chromogenic substrate S-2288 (Dixon plot, Cornish-Bowden plot); assay type: biochemical; conditions: for Ki: S-2288, 75 nM human tPA, PBS pH 7.4, Dixon plot; for Mode of inhibition (Cornish-Bowden S/Vo vs I plot): tPA
human thrombin = human thrombin (Homo sapiens, UniProt P00734); assay: Thrombin inhibition assay with fluorogenic Thrombin Substrate III (Dixon plot, Cornish-Bowden plot); assay type: biochemical; conditions: for Ki: TSIII, 0.25 U/mL human thrombin, PBS pH 7.4 at 10% DMSO, Dixon plot; for Mode of inhibition (Cornish-Bowden S/Vo vs I plot): thrombin
[2] = target: LBS on kringle domains of plasmin; conditions: cited from earlier work
plasmin [3] = conditions: read-out: Plasmin active site Ki reported in the literature; cited from earlier work
plasmin [4] = target: T1, plasmin; assay: Annular fibrin clot assay (FITC-tagged fibrin clot lysis by plasmin); assay type: biochemical; conditions: for IC50/Ki: annular clot IC50 over S-2251 plasmin Ki
plasmin [5] = target: T1, plasmin; conditions: read-out: Plasmin Ki; S-2251, 42.5 nM human plasmin, Dixon plot; previously determined; cited from earlier work

T1 sequence (P00747 97-580 limits assumed): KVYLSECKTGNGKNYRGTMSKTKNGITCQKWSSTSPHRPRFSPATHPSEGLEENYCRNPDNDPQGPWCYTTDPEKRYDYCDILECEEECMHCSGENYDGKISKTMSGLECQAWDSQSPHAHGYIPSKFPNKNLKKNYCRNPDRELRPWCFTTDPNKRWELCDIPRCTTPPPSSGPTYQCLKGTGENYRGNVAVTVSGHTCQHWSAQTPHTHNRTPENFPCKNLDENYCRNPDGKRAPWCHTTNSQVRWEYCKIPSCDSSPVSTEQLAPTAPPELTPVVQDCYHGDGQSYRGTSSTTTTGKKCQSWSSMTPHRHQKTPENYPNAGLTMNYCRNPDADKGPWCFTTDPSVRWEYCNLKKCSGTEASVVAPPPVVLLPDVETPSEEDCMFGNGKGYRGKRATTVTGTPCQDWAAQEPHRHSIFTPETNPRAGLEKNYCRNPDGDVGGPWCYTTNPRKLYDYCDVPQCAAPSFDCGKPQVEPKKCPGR
T1 sequence (P00747 581-810 limits assumed): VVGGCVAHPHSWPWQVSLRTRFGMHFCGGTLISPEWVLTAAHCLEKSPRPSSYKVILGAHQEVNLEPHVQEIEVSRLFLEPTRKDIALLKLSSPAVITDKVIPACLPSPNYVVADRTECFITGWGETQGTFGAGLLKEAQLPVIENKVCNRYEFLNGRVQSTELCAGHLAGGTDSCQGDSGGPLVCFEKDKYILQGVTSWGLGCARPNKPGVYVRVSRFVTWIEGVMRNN
human tPA, sequence (P00750 36-562): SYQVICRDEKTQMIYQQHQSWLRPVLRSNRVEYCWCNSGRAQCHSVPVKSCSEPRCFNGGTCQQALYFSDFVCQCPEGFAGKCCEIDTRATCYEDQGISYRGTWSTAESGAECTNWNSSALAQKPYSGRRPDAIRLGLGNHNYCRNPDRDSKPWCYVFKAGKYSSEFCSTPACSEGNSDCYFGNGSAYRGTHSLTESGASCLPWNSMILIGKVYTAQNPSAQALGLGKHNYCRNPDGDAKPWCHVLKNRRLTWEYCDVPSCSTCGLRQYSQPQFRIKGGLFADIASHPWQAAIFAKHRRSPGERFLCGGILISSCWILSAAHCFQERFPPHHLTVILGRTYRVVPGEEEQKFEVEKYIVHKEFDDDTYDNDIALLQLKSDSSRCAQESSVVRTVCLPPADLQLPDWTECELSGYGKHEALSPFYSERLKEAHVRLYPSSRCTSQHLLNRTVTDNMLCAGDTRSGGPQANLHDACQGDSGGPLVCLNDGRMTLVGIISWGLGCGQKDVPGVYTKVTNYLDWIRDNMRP

Row | Ki (human thrombin; Thrombin Ki) | SMILES | Mode of inhibition (Cornish-Bowden S/Vo vs I plot) (plasmin [1]) | Ki (plasmin [1]) | Ki (human tPA; read-out: tPA Ki) | Mode of inhibition (Cornish-Bowden S/Vo vs I plot) (human tPA) | Ki (human thrombin; read-out: Thrombin Ki) | Mode of inhibition (Cornish-Bowden S/Vo vs I plot) (human thrombin) | rpAMB (KiAMB/Kihetero) (plasmin [1]) | rpTXA (KiTXA/Kihetero) (plasmin [1]) | other results
1 |  | N=C(N)c1ccc(CNC(=O)CCOCCOCCOCCOCCNC(=O)CCCCCN)cc1 [EACA-dPEG4-AMB] | competitive inhibitor | 233 ± 5 µM | 501 µM | competitive inhibitor | 4.05 µM and 4 µM | competitive inhibitor |  |  | fold stronger inhibitor of thrombin than the TXA counterpart (human thrombin; EACA-dPEG4-AMB vs TXA-dPEG4-AMB, monovalent EACA vs monovalent TXA): 3 fold
2 |  | NC[C@H]1CC[C@H](C(=O)O)CC1 [TXA, Tranexamic acid] | weak competitive inhibitor |  |  |  |  |  |  |  | Ki ([2]; read-out: Ki for LBS on the K1 domain of plasmin, K1 domain): 1.1 µM; Ki ([2]; read-out: Ki for the other plasmin kringle domain LBS, other kringle domains): ~750 µM; Ki (plasmin [3]): ~40000 µM
3 |  | N=C(N)c1ccc(N)cc1 [4-amino benzamidine, reference compound] |  |  |  | competitive inhibitor |  | competitive inhibitor |  |  | Ki (human tPA; tPA Ki): 148 µM; IC50 (plasmin [4]): 451 ± 70 µM; Ki (plasmin [5]): 51 ± 2.4 µM
4 |  | N=C(N)c1ccccc1 [Benzamidine, reference compound] |  |  |  | competitive inhibitor |  | competitive inhibitor |  |  | 
5 |  | N=C(N)c1ccc(CNC(=O)CCOCCOCCOCCOCCNC(=O)[C@H]2CC[C@H](CN)CC2)cc1 [TXA-dPEG4-AMB] | competitive inhibitor | 42 ± 12 µM | 230 µM and 231 µM | competitive inhibitor | 14.5 µM and 14 µM | competitive inhibitor | 26 | 509 | 
6 |  | N=C(N)c1ccc(CNC(=O)CCOCCOCCOCCOCCOCCOCCOCCOCCNC(=O)[C@H]2CC[C@H](CN)CC2)cc1 [TXA-dPEG8-AMB] | competitive inhibitor | 99.4 µM and 99 µM | 292 ± 0.4 µM | not to be a solely competitive inhibitor | 32.4 µM and 32 µM | competitive inhibitor | 11 | 216 | 
7 | 65200 µM | NCCCCCC(=O)O [EACA, ɛ-aminocaproic acid, reference compound] | weak competitive inhibitor |  |  | weak competitive inhibitor |  | competitive inhibitor |  |  | 
8 |  | N=C(N)c1ccc(CNC(=O)CCOCCOCCOCCOCCOCCOCCOCCOCCOCCOCCOCCOCCNC(=O)[C@H]2CC[C@H](CN)CC2)cc1 [TXA-dPEG12-AMB] | competitive inhibitor | 207 ± 4.1 µM | 641 µM | competitive inhibitor | 45.7 µM and 46 µM | competitive inhibitor | 5 | 103 | 
9 | 151 µM | N=C(N)c1ccc(C(=O)O)cc1 [4-carboxy benzamidine, reference compound] |  |  |  |  |  | competitive inhibitor |  |  | Ki (plasmin [5]): 292 ± 6.5 µM
10 |  | N=C(N)c1ccc(CNC(=O)CN(CC(=O)NCc2ccc(C(=N)N)cc2)CC(=O)NCc2ccc(C(=N)N)cc2)cc1 [Tri-AMB] |  |  | 164 ± 17 µM | competitive inhibitor | 10.7 µM and 11 µM | competitive inhibitor |  |  | IC50 (plasmin [4]; read-out: Annular IC50, 850 nM plasmin, annular fibrin clot, from Vmax): 7.7 ± 3 µM
11 |  | N=C(N)c1ccc(CNC(=O)CCOCCOCCOCCOCCOCCOCCOCCOCCOCCOCCOCCOCCOCCOCCOCCOCCOCCOCCOCCOCCOCCOCCOCCOCCOCCOCCOCCOCCOCCOCCOCCOCCOCCOCCOCCOCCNC(=O)[C@H]2CC[C@H](CN)CC2)cc1 [TXA-dPEG36-AMB] | competitive inhibitor | 75.4 µM and 75 µM | 136 ± 0.7 µM | not to be a solely competitive inhibitor | 77.5 µM and 78 µM | competitive inhibitor | 14 | 285 | 
12 | 344 µM | N=C(N)c1ccc(CN)cc1 [4-aminomethyl benzamidine, reference compound] |  |  |  | competitive inhibitor |  | competitive inhibitor |  |  | Ki (human tPA; tPA Ki): 5210 µM; IC50 (plasmin [4]): 32700 µM; IC50/Ki (plasmin [4]): 29.0; Ki (plasmin [5]): 1070 µM

Row | SMILES | Ki (human thrombin; Thrombin Ki) | Mode of inhibition (Cornish-Bowden S/Vo vs I plot) (plasmin [1]) | Ki (plasmin [1]) | Ki (human tPA; read-out: tPA Ki) | Mode of inhibition (Cornish-Bowden S/Vo vs I plot) (human tPA) | Ki (human thrombin; read-out: Thrombin Ki) | Mode of inhibition (Cornish-Bowden S/Vo vs I plot) (human thrombin) | rpAMB (KiAMB/Kihetero) (plasmin [1]) | rpTXA (KiTXA/Kihetero) (plasmin [1]) | other results
13 | N=C(N)c1ccc(OCCCCCOc2ccc(C(=N)N)cc2)cc1 [Pentamidine, reference compound] | 4.48 µM and 4.5 µM |  |  |  | competitive inhibitor |  | competitive inhibitor |  |  | Ki (human tPA; tPA Ki): 42.7 µM and 43 µM; IC50 (plasmin [4]): 3.2 ± 1 µM; IC50/Ki (plasmin [4]): 1.5
